Measurements taken from patent publication US20070219115A1, “Pharmaceutical Uses of Bisphosphonates” (priority 2003, published 2007).

B1: TRAIL: TNF-related apoptosis inducing ligand, purchased from R&D systems (protein, UniProt P50591 1-281, looked up)
Tumor necrosis factor ligand …: MAMMEVQGGPSLGQTCVLIVIFTVLLQSLCVAVTYVYFTNELKQMQDKYSKSGIACFLKEDDSYWDPNDEESMNSPCWQVKWQLRQLVRKMILRTSEETISTVQEKQQNISPLVRERGPQRVAAHITGTRGRSNTLSSPNSKNEKALGRKINSWESSRSGHSFLSNLHLRNGELVIHEKGFYYIYSQTYFRFQEEIKENTKNDKQMVQYIYKYTSYPDPILLMKSARNSCWSKDAEYGLYSIYQGGIFELKENDRIFVSVTNEHLIDMDHEASFFGAFLVG

How the values were obtained:
MCF7 cells = test: Apoptosis of MCF7 cells treated with ZOL and/or PAC, evaluated by nuclear morphology; format: cell-based; conditions: for apoptosis: Experiment 2: 2 nM PAC 4 hours day 1, 1 μM ZOL 1 hour day 2, combined or alone, drug free medium to 48 hours
Protocol: MCF7 cells are seeded and pre-incubated then treated with ZOL and/or PAC in the sequences given below. In the case of the PAC then ZOL sequence, in one of the experiments geranylglycerol (GGOH, 50 μM) is added and then removed with the ZOL. Apoptosis is determined by evaluation of nuclear morphology.
Group 1: 25 μM ZOL (for 1 hour on day 1) followed by 2 nM PAC (for 4 hours day 2)
Group 2: 2 nM PAC (for 4 hours on day 1) followed by 25 μm ZOL (for 1 hour on day 2)
Following the last drug exposure the cells in each group are incubated in drug free medium to 48 hours.
2 nM PAC (for 4 hours on day 1) followed by 1 μM ZOL (for 1 hour on day 2). Following the last drug exposure the cells are incubated in drug free medium to 48 hours.
2 nM PAC (for 4 hours on day 1) followed by 25 μM or 1 μM ZOL (for 1 hour on day 2), with or without geranylgeraniol (GGOH) 50 μM (added and removed simultaneously with the ZOL). Following the last drug exposure the cells are incubated in drug free medium to 48 hours.

MCF7Ca cells [1] = test: Apoptosis/necrosis of MCF7Ca cells, nuclear morphology after Hoechst and propidium iodide staining; format: cell-based; conditions: for apoptotic cell death, each drug individually: MCF7Ca treated with each drug individually
Protocol: (§1) Breast cancer cells MCF7Ca (gift from Dr Chen, NY, USA) are used. Letrozole and zoledronic acid are provided by Novartis AG, Basel, Switzerland.
Following the initial dose-response studies the sequential and combined treatments are carried out using 10 μM zoledronic acid and 100 nM letrozole for 24 hours each, followed by a drug-free incubation period up to 24 hours. In some additional studies 1 μM zoledronic acid is used for 1 hour only.
The levels of apoptotic/necrotic tumour cell death are determined by evaluation of nuclear morphology following staining of the cells using Hoechst and propidium iodide.
The levels of apoptosis and necrosis caused by increasing doses of zoledronic acid is determined by expressing the cells to zoledronic acid for 1 hour, followed by a 72 hour incubation in drug-free medium. [drawing]
The levels of apoptosis caused by increasing doses of letrozole is determined by exposing the cells to letrozole for 72 hours. [drawing]
Cells are treated with a combination of 100 nM letrozole and 10 μM zoledronic acid for 24 hours, and the levels of apoptotic cell death determined following an additional 48 hours incubation in drug-free medium. [drawing]
In this series of experiments the cells are exposed to 10 μM zoledronic acid for 24 hours, washed and subsequently treated with 100 nM letrozole for 24 hours. The levels of apoptotic cell death are determined following a further 24 hours incubation in drug-free medium. [drawing]
(GGOH is an intermediary of the mevalonate pathway and is commonly used to reverse the effects of zoledronic acid inhibition of this pathway). In this set of experiments cells are treated with 100 nM letrozole for 24 hours followed by 1 hour treatment with 10 μM zoledronic acid+50 μM GGOH. The level of apoptosis is determined at 72 hours.
These experiments are performed in order to determine if the effects of zoledronic acid and letrozole are affected by starving the cells by treating them under serum-free conditions. [drawing]

[2] = following infusion of ZOL in vivo, for a few hours; cited from earlier work
[3] = tested on: breast cancer lines MDA-MB-426 and MCF7; test: Apoptosis of breast cancer cells treated with ZOL and TRAIL; format: cell-based; conditions: single agents as controls
Protocol: The breast cancer lines MDA-MB-426 and MCF7 and the prostate cancer cell line PC3 are treated with ZOL (25 μM and TRAIL (purchased from R&D systems, Abingdon, UK; 10 ng/ml) for varying incubation periods and sequences as follows:
Group 1: TRAIL given first for 24 hours followed by ZOL for 48 hours. […]
Group 3: ZOL and TRAIL given simultaneously for 24 hours.
Group 4: TRAIL given first for 24 hours then ZOL for 4 hours followed by drug-free medium for 48 hours.
Group 5: ZOL given first for 4 hours and cells maintained in drug-free medium for 48 hours followed by TRAIL for 24 hours.

MCF7Ca cells [4] = test: MCF7Ca cell growth, cells counted with coulter counter; format: cell-based
Protocol: as §1
MCF7Ca cells are exposed to increasing doses of zoledronic acid for 1 hour, the drug removed and the cells incubated in drug-free medium up to 72 hours. The number of cells are counted using a coulter counter. [drawing]
MCF7Ca cells are exposed to increasing doses of letrozole for 24, 48 and 72 hours. For the 24 and 48 hour time points the drug is removed and the cells incubated in drug-free medium up to 72 hours. The number of cells are counted using a coulter counter. [drawing]

[5] = 100 μM, 1 hour exposure, 72 hour drug-free
[6] = group 1: TRAIL 10 ng/ml 24 hours followed by ZOL 25 μM 48 hours
[7] = group 2: ZOL 25 μM for 48 hours followed by TRAIL 10 ng/ml
[8] = group 3: ZOL 25 μM and TRAIL 10 ng/ml together for 24 hours
[9] = 100 nM (highest dose tested), 72 hours

| Molecule | apoptosis (MCF7 cells) | apoptotic cell death, each drug individually (MCF7Ca cells [1]) | apoptosis [3, 6] | apoptosis [3, 7] | apoptosis [3, 8] | further results |
| --- | --- | --- | --- | --- | --- | --- |
| CC(C)=CCC/C(C)=C/CC/C(C)=C/CC/C(C)=C/CO [GGOH, geranylgeraniol] |  |  |  |  |  | prevention of the synergistic increase in apoptotic cell death (MCF7 cells; Experiment 3: PAC followed by ZOL combined with GGOH 50 μM): 70-80%; level of apoptosis with GGOH added (MCF7Ca cells [1]; 100 nM letrozole 24 hours followed by 1 hour 10 μM zoledronic acid + 50 μM GGOH, apoptosis at 72 hours): reduced to the same level observed using letrozole alone |
| CC(=O)O[C@H]1C(=O)[C@@]2(C)[C@H]([C@H](OC(=O)c3ccccc3)[C@]3(O)C[C@H](OC(=O)[C@H](O)[C@@H](NC(=O)c4ccccc4)c4ccccc4)C(C)=C1C3(C)C)[C@]1(OC(C)=O)CO[C@@H]1C[C@@H]2O (relative stereo) [PAC, [2aR-[2aα, 4β, 4αβ, 6αβ, 9α(αR*, βS*),-11α,12α,12aα,12bα]]-β-(benzoylamino)-α-hydroxybenzenepropanoic acid 6,12b-bis(acetyloxy)-12-(benzoyloxy)-2α,3,4,4a,5,6,9,10,11,12,12a,12b-dodecahydro-4,11-dihydroxy-4a,8,13,13-tetramethyl-5-oxo-7,11-methano-1H-cyclodeca[3,4]benz[1,2-b]oxet-9-yl ester] | 1.25% |  |  |  |  |  |
| O=P(O)(O)C(O)(Cn1ccnc1)P(=O)(O)O [ZOL, 2-(imidazol-1yl)-1-hydroxyethane-1,1-diphosphonic acid] | 0.25% | do not induce significant levels of apoptotic cell death | 0.5% | 0.7% | 0.7% | peak plasma concentration [2]: 1 to 2 µM; apoptotic cells (MCF7Ca cells [1]; [5]): less than 3%; necrotic cell death (MCF7Ca cells [1]; [5]): 4.5%; doses causing a decrease in the number of MCF7Ca (MCF7Ca cells [4]; 1 hour exposure, drug-free medium up to 72 hours): above 1 μM |
| N#Cc1ccc(C(c2ccc(C#N)cc2)n2cncn2)cc1 [letrozole, 4-[α-(4-cyanophenyl)-1-(1,2,4-triazolyl)methyl]-benzonitrile] |  | do not induce significant levels of apoptotic cell death |  |  |  | apoptosis (MCF7Ca cells [1]; [9]): less than 3%; necrosis (MCF7Ca cells [1]; [9]): less than 4%; effect on cell number at low doses (MCF7Ca cells [4]; 0.1 nM (all time points), 1 nM (24 and 48 hours)): Increased number of cells; reduction in cell number compared to control (MCF7Ca cells [4]; 100 nM letrozole, 72 hours): 31% |
| B1 |  |  | 1.75% | 2.7% | 1.75% |  |
